# Laboratory results: patent publication US20250282799A1, “SUBSTITUTED PYRIDO[4,3-d]PYRIMIDINES AS KRAS MODULATORS” (Alterome Therapeutics, Inc., priority 2023, published 2025)
# pIC50: −log10 of the molar value.
# Test system: KRAS G12V dependent lung adenocarcinoma cell line, NCI-H441
# Assay: Cellular pERK (Thr202/Tyr204) FRET/HTRF assay
# Format: cell-based
# Conditions: Homo sapiens, NCI-H441, cellular pERK (Thr202/Tyr204) HTRF, NCI-H441 cells
# Procedure, shortened: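 Read-out is a wash-free FRET sandwich immunoassay for endogenous ERK1/2 phosphorylated on Thr202/Tyr204. Signal was measured in NCI-H441 lung adenocarcinoma cells after 1 hr compound exposure at 37 °C. IC50 values come from fitted concentration-response curves.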
row,pIC50,Compound
1,> 7.30,"[2H]C([2H])(F)Oc1c(F)ccc2cc(N)cc(-c3ncc4c(N5CCOC[C@H]6[C@H](F)[C@H]65)nc(OC[C@@]56CCCN5C[C@@]5(CC5(F)F)C6)nc4c3F)c12 (single isomer, unassigned) [Example 229]"
2,6.30 to 7.30,"[2H]C([2H])([2H])Oc1c(F)cc(F)c2cccc(-c3ncc4c(N5CCCC[C@H]6[C@H](F)[C@H]65)nc(OC([2H])([2H])[C@@]56CCCN5C[C@H](F)C6)nc4c3F)c12 [Example 140, 7-(5,7-difluoro-8-(methoxy-d3)naphthalen-1-yl)-8-fluoro-4-((1S,7R,8S)-8-fluoro-2-azabicyclo[5.1.0]octan-2-yl)-2-(((2R,7aS)-2-fluorotetrahydro-1H-pyrrolizin-7a(5H)-yl)methoxy-d2)pyrido[4,3-d]pyrimidine]"
3,> 7.30,"[2H]C([2H])(Oc1nc(N2CCOC[C@H]3[C@H](F)[C@H]32)c2cnc(-c3cc(N)cc4ccc(F)c(C#C)c34)c(F)c2n1)[C@@]12CCCN1C[C@]1(C[C@@H]1F)C2 (single isomer, unassigned) [Example 313]"
4,> 7.30,"C#Cc1c(F)ccc2cc(N)cc(-c3ncc4c(N5CCOC[C@H]6[C@H](F)[C@H]65)nc(OC[C@]56C/C(=C/F)CN5CCC65CC5)nc4c3F)c12 [Example 363, 5-Ethynyl-6-fluoro-4-(8-fluoro-4-((1S,7S,8S)-8-fluoro-5-oxa-2-azabicyclo[5.1.0]octan-2-yl)-2-(((R,Z)-6′-(fluoromethylene)tetrahydrospiro[cyclopropane-1,1′-pyrrolizin]-7a′(5′H)-yl)methoxy)pyrido[4,3-d]pyrimidin-7-yl)naphthalen-2-amine]"
5,> 7.30,"[2H]C([2H])(F)Oc1c(F)c(F)cc2cncc(-c3ncc4c(N5CCOC[C@H]6[C@H](F)[C@H]65)nc(OC([2H])([2H])[C@@]56CCCN5C[C@H](F)C6)nc4c3F)c12 [Example 135, (1S,7S,8S)-2-(7-(6,7-difluoro-5-(fluoromethoxy-d2)isoquinolin-4-yl)-8-fluoro-2-(((2R,7aS)-2-fluorotetrahydro-1H-pyrrolizin-7a(5H)-yl)methoxy-d2)pyrido[4,3-d]pyrimidin-4-yl)-8-fluoro-5-oxa-2-azabicyclo[5.1.0]octane]"
6,> 7.30,"[2H]C([2H])(Oc1nc(N2CCOC[C@H]3[C@H](F)[C@H]32)c2cnc(-c3cc(N)cc4ccc(F)c(C#C)c34)c(F)c2n1)[C@@]12CCCN1C[C@H](Cl)C2 (single isomer, unassigned) [Example 238]"
7,> 7.30,"C=C1CN2CCC[C@@]2(COc2nc(N3CCOC[C@H]4[C@H](F)[C@H]43)c3cc(C(F)(F)F)c(-c4ccc(F)c5sc(N)c(C#N)c45)c(F)c3n2)C1 (atropisomer, axis not shown) [Example 432, 2-amino-7-fluoro-4-((S)-8-fluoro-4-((1S,7S,8S)-8-fluoro-5-oxa-2-azabicyclo[5.1.0]octan-2-yl)-2-(((S)-2-methylenetetrahydro-1H-pyrrolizin-7a(5H)-yl)methoxy)-6-(trifluoromethyl)quinazolin-7-yl)benzo[b]thiophene-3-carbonitrile]"
8,5.00 to 6.30,"[2H]C([2H])(Oc1nc(N2CCOC[C@H]3[C@H](F)[C@H]32)c2cc(Cl)c(-c3cc(N)cc(C)c3C(F)(F)F)c(F)c2n1)[C@@]12CCCN1C[C@H](F)C2 [Example 179, 3-(6-chloro-8-fluoro-4-((1S,7S,8S)-8-fluoro-5-oxa-2-azabicyclo[5.1.0]octan-2-yl)-2-(((2R,7aS)-2-fluorotetrahydro-1H-pyrrolizin-7a(5H)-yl)methoxy-d2)quinazolin-7-yl)-5-methyl-4-(trifluoromethyl)aniline]"
9,> 7.30,"[2H]C([2H])(Oc1nc(N2CCOC[C@H]3[C@H](F)[C@H]32)c2cnc(-c3cc(N)cc4ccc(F)c(C#C)c34)cc2n1)[C@@]12CCCN1C[C@H](F)C2 [Example 261, 5-ethynyl-6-fluoro-4-(4-((1S,7S,8S)-8-fluoro-5-oxa-2-azabicyclo[5.1.0]octan-2-yl)-2-(((2R,7aS)-2-fluorotetrahydro-1H-pyrrolizin-7a(5H)-yl)methoxy-d2)pyrido[4,3-d]pyrimidin-7-yl)naphthalen-2-amine]"
10,> 7.30,"C#Cc1c(F)ccc2cc(N)cc(-c3ncc4c(N5CCOC[C@H]6[C@H](F)[C@H]65)nc(OC[C@@]56CC7(CC7)CN5CCC65CC5)nc4c3F)c12 [Example 207, 4-(2-(((S)-dihydro-5′H-dispiro[cyclopropane-1,1′-pyrrolizine-6′,1″- cyclopropan]-7a′(7′H)-yl)methoxy)-8-fluoro-4-((1S,7S,8S)-8-fluoro-5-oxa-2-azabicyclo[5.1.0]octan-2-yl)pyrido[4,3-d]pyrimidin-7-yl)-5-ethynyl-6-fluoronaphthalen-2-amine]"
11,> 7.30,"C#Cc1c(F)ccc2cc(N)cc(-c3ncc4c(N5CCOC[C@H]6[C@H](F)[C@H]65)nc(OC[C@@]56C[C@H](C)CN5CCC65CC5)nc4c3F)c12 (single isomer, unassigned) [Example 243]"
12,> 7.30,"C#Cc1c(F)ccc2cc(N)cc(-c3ncc4c(N5CCOC[C@H]6[C@H](F)[C@H]65)nc(OC[C@@]56CCCN5CC(=C)C6)nc4c3C)c12 [Example 425, 5-ethynyl-6-fluoro-4-(4-((1S,7S,8S)-8-fluoro-5-oxa-2-azabicyclo[5.1.0]octan-2-yl)-8-methyl-2-(((S)-2-methylenetetrahydro-1H-pyrrolizin-7a(5H)-yl)methoxy)pyrido[4,3-d]pyrimidin-7-yl)naphthalen-2-amine]"
13,5.00 to 6.30,"C=C1CN2CCC[C@@]2(COc2nc(N3CCCC[C@@H]4[C@@H](F)[C@@H]43)c3cnc(-c4cc(N)c(F)c(C)c4C(F)(F)F)c(F)c3n2)C1 [Example 393, 2-fluoro-5-(8-fluoro-4-((1R,7S,8R)-8-fluoro-2-azabicyclo[5.1.0]octan-2-yl)-2-(((S)-2-methylenetetrahydro-1H-pyrrolizin-7a(5H)-yl)methoxy)pyrido[4,3-d]pyrimidin-7-yl)-3-methyl-4-(trifluoromethyl)aniline]"
14,> 7.30,"[2H]C([2H])(Oc1nc(N2CCOC[C@H]3[C@H](F)[C@H]32)c2cnc(-c3cncc4ccc(F)c(OCF)c34)c(F)c2n1)[C@@]12CCCN1C[C@H](F)C2 [Example 126, (1S,7S,8S)-8-Fluoro-2-(8-fluoro-7-(6-fluoro-5-(fluoromethoxy)isoquinolin-4-yl)-2-(((2R,7aS)-2-fluorotetrahydro-1H-pyrrolizin-7a(5H)-yl)methoxy-d2)pyrido[4,3-d]pyrimidin-4-yl)-5-oxa-2-azabicyclo[5.1.0]octane]"
15,> 7.30,"[2H]C([2H])(Oc1nc(N2CCOC[C@H]3[C@H](F)[C@H]32)c2cnc(-c3cc(N)cc4ccc(F)c(CC)c34)c(F)c2n1)[C@@]12CCCN1C[C@H](F)C2 [Example 201, 5-ethyl-6-fluoro-4-(8-fluoro-4-((1S,7S,8S)-8-fluoro-5-oxa-2-azabicyclo[5.1.0]octan-2-yl)-2-(((2R,7aS)-2-fluorotetrahydro-1H-pyrrolizin-7a(5H)-yl)methoxy-d2)pyrido[4,3-d]pyrimidin-7-yl)naphthalen-2-amine]"

# Same assay, conditions: Homo sapiens, NCI-H441, cellular pERK HTRF, NCI-H441 (KRAS G12V) cells
row,pIC50,Compound
1,> 7.30,"C#Cc1c(F)ccc2cc(N)cc(-c3ncc4c(N5CCOC[C@H]6[C@H](F)[C@H]65)nc(OCC5CCC6COCCN65)nc4c3F)c12 (stereo partly drawn) [Example 477, 5-ethynyl-6-fluoro-4-(8-fluoro-4-((1S,7S,8S)-8-fluoro-5-oxa-2-azabicyclo[5.1.0]octan-2-yl)-2-((hexahydro-1H-pyrrolo[2,1-c][1,4]oxazin-6-yl)methoxy)pyrido[4,3-d]pyrimidin-7-yl)naphthalen-2-amine]"

# Same assay, conditions: Homo sapiens, NCI-H441, pERK HTRF, NCI-H441 cells (KRAS G12V)
row,pIC50,Compound
1,> 7.30,"[2H]C([2H])([2H])Oc1c(F)c(F)cc2cc(N)cc(-c3ncc4c(N5CCOC[C@H]6[C@H](F)[C@H]65)nc(OC([2H])([2H])[C@@]56CCCN5C[C@H](F)C6)nc4c3F)c12 [Example 44, 6,7-Difluoro-4-(8-fluoro-4-((1S,7S,8S)-8-fluoro-5-oxa-2-azabicyclo[5.1.0]octan-2-yl)-2-(((2R,7aS)-2-fluorotetrahydro-1H-pyrrolizin-7a(5H)-yl)methoxy-d2)pyrido[4,3-d]pyrimidin-7-yl)-5-(methoxy-d3)naphthalen-2-amine]"
2,5.00 to 6.30,"[2H]C([2H])(Oc1nc(N2CCC[C@@H]3[C@H](F)[C@@H]32)c2cnc(-c3cc(N)cc4cc(F)c(F)c(C#C)c34)c(F)c2n1)[C@@]12CCCN1C[C@H](F)C2 [Example 63, 5-Ethynyl-6,7-difluoro-4-(8-fluoro-4-((1R,6S,7S)-7-fluoro-2-azabicyclo[4.1.0]heptan-2-yl)-2-(((2R,7aS)-2-fluorotetrahydro-1H-pyrrolizin-7a(5H)-yl)methoxy-d2)pyrido[4,3-d]pyrimidin-7-yl)naphthalen-2-amine]"
3,6.30 to 7.30,"[2H]C([2H])(Oc1nc(N2CCC[C@H]3C[C@H]32)c2cnc(-c3cc(N)cc4cc(F)c(F)c(C#C)c34)c(F)c2n1)[C@@]12CCCN1C[C@H](F)C2 [Example 52, 4-(4-((1R,6S)-2-azabicyclo[4.1.0]heptan-2-yl)-8-fluoro-2-(((2R,7aS)-2-fluorotetrahydro-1H-pyrrolizin-7a(5H)-yl)methoxy-d2)pyrido[4,3-d]pyrimidin-7-yl)-5-ethynyl-6,7-difluoronaphthalen-2-amine]"
4,> 7.30,"[2H]C([2H])(Oc1nc(N2CCCCC[C@H]3[C@H](F)[C@H]32)c2cnc(-c3cc(N)cc4cc(F)c(F)c(C#C)c34)c(F)c2n1)[C@@]12CCCN1C[C@H](F)C2 [Example 60, 5-Ethynyl-6,7-difluoro-4-(8-fluoro-4-((1S,8R,9S)-9-fluoro-2-azabicyclo[6.1.0]nonan-2-yl)-2-(((2R,7aS)-2-fluorotetrahydro-1H-pyrrolizin-7a(5H)-yl)methoxy-d2)pyrido[4,3-d]pyrimidin-7-yl)naphthalen-2-amine]"
